Consider 3 compounds from publication PMC3189943, “Catalytic Properties of the Isolated Diaphorase Fragment of the NAD^+-Reducing [NiFe]-Hydrogenase from Ralstonia eutropha” (PLoS ONE, 2011).

Like-named read-outs stand apart in the source and are kept apart here.

Assay [1] deals with T1, HoxFU (diaphorase moiety of the NAD+-reducing soluble [NiFe]-hydrogenase, SH) (Cupriavidus necator, UniProt P22317).
T1 construct: gene hoxF; HoxFU heterodimer without HoxHY and HoxI; N-terminal Strep-tag II on HoxF kept; plasmid pGE553, homologous overproduction in R. eutropha HF424; Strep-Tactin plus size exclusion; apparent 110 kDa; HoxF 67 kDa, HoxU 27 and 23 kDa (both with original termini, unidentified modification); FMN and Fe-S clusters; with NAD-reducing hydrogenase HoxS subunit gamma
T1 sequence (P22317 whole entry): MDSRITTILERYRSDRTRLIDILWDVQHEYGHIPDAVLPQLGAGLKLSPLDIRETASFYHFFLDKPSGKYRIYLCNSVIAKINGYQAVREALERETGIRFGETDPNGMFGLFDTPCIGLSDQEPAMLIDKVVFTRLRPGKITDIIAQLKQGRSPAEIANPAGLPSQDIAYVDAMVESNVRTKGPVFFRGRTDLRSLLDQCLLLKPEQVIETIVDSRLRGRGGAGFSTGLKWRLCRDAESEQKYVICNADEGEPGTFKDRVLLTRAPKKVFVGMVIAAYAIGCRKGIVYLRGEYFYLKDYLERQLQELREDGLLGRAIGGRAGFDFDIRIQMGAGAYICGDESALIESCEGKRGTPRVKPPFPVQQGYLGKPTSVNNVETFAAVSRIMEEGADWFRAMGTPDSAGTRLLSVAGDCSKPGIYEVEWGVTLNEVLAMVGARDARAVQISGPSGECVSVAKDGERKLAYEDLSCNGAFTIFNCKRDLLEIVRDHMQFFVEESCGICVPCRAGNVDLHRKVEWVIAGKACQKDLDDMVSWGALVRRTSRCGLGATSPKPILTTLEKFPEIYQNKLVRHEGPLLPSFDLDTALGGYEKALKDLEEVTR
T1 sequence (P22318 2-234 partner): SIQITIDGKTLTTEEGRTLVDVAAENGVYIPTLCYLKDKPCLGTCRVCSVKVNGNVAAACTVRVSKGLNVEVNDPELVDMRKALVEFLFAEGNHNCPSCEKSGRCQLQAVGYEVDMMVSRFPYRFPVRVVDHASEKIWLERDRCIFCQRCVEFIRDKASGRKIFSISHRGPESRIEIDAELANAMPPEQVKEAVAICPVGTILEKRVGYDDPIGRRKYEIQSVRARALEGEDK
The assay can be described thus: protein film electrochemistry, inhibition of NAD+ reduction current. The conditions noted are these: -412 mV, 0.14 mM NAD+, 50 mM Tris-HCl pH 8.0; enzyme adsorbed on graphite electrode. It is filed as biochemical.

In assay [2] the target is T1, HoxFU (diaphorase moiety of the NAD+-reducing soluble [NiFe]-hydrogenase, SH). Kind of assay: protein film electrochemistry, Dixon plot. The format is biochemical.

Consider `Nc1ncnc2c1ncn2[C@@H]1O[C@H](COP(=O)(O)OP(=O)(O)OC[C@H]2OC(O)[C@H](O)[C@@H]2O)[C@@H](O)[C@H]1O` (stereo partly drawn) [ADP-ribose], for which the “protein film electrochemistry, inhibition of NAD+ reduction current” value in assay [1] was “effect of injections of ADP-ribose on NAD^+ reduction by HoxFU, confirming that ADP-ribose is an inhibitor”.
In the case of `NC(=O)c1ccc[n+]([C@@H]2O[C@H](COP(=O)(O)OP(=O)(O)OC[C@H]3O[C@@H](n4cnc5c(N)ncnc54)[C@H](O)[C@@H]3O)[C@@H](O)[C@H]2O)c1` [NAD^+], in assay [2] (read-out: K I(NAD+)), the Ki was 100 to 300 µM.
With `NC(=O)C1=CN([C@@H]2O[C@H](COP(=O)(O)OP(=O)(O)OC[C@H]3O[C@@H](n4cnc5c(N)ncnc54)[C@H](O)[C@@H]3O)[C@@H](O)[C@H]2O)C=CC1` [NADH], the Ki in assay [2] (read-out: K I(NADH)) lay within 200 to 300 µM.
